Measured values reported in article PMC7316778 (Nature Communications, 2020).
Where “and” joins values, the source holds several entries; their conditions need not be identical. Equal entries are not always repeated. Where two headings read alike, the source gives them in different places.

Columns and labels:
[1] = system: FES^S700C HL-60 cells; experiment: CD11b surface expression, neutrophil differentiation; assay type: cell-based, human; conditions: 100 nM; Supplementary Figure 12c; individual replicates; listed as WEL028
[2] = molecular target: T1, BMPR2 (Homo sapiens, UniProt Q13873); experiment: SelectScreen kinase assay
T1 sequence (Q13873 27-1038): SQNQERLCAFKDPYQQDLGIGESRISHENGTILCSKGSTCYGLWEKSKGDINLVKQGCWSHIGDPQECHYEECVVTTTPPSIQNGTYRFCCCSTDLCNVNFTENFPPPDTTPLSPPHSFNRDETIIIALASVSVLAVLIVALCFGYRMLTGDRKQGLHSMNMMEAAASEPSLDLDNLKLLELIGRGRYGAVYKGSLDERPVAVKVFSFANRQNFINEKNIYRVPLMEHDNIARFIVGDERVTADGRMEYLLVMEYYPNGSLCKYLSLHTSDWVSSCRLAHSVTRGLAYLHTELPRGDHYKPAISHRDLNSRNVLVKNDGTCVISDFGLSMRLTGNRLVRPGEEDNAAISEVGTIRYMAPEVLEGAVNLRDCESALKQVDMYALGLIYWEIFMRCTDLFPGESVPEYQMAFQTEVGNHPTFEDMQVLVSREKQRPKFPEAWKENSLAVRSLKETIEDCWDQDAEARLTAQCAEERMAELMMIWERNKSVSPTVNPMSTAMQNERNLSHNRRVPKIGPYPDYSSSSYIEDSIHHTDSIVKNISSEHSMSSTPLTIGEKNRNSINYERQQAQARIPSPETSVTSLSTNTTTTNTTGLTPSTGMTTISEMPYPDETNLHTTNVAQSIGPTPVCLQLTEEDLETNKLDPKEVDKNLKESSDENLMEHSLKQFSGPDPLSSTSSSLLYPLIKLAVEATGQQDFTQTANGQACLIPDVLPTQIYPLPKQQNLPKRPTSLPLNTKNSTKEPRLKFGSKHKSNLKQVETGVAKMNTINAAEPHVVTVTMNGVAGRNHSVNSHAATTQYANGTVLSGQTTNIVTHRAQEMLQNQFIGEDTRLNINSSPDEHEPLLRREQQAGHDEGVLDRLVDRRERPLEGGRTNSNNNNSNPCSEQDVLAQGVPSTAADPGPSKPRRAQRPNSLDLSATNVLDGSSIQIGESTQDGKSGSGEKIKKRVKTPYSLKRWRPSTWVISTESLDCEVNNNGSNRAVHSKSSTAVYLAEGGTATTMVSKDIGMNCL
Procedure: (§1) Selectivity profiling assays were performed by the Invitrogen SelectScreen™ Services. […] The concentration of ATP was selected to be equal to the KM, unless indicated otherwise.

[3] = molecular target: AKT1 (PKB alpha) (Homo sapiens, UniProt P31749); experiment: SelectScreen kinase assay; conditions: for Inhibition at 1 µM (%): AKT1 (PKB alpha), ZLYTE, ATP Km app
Sequence of AKT1 (PKB alpha) (P31749 whole entry): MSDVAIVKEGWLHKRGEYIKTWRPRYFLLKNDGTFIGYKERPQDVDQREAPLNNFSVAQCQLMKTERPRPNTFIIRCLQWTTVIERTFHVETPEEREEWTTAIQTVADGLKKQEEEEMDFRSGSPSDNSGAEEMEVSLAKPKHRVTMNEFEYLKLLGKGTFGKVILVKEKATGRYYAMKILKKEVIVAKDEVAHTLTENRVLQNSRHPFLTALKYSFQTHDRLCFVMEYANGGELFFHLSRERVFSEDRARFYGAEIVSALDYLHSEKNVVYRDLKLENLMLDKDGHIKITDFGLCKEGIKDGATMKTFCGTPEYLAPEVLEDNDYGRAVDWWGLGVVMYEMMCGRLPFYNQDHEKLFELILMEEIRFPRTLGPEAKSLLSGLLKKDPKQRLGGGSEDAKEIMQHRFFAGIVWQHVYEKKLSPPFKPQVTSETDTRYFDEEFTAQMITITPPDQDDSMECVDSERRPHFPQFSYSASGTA
Procedure: as §1

[4] = molecular target: CSK (Homo sapiens, UniProt P41240); experiment: SelectScreen kinase assay; conditions: for Inhibition at 1 µM (%): CSK, ZLYTE, ATP Km app
Sequence of CSK (P41240 whole entry): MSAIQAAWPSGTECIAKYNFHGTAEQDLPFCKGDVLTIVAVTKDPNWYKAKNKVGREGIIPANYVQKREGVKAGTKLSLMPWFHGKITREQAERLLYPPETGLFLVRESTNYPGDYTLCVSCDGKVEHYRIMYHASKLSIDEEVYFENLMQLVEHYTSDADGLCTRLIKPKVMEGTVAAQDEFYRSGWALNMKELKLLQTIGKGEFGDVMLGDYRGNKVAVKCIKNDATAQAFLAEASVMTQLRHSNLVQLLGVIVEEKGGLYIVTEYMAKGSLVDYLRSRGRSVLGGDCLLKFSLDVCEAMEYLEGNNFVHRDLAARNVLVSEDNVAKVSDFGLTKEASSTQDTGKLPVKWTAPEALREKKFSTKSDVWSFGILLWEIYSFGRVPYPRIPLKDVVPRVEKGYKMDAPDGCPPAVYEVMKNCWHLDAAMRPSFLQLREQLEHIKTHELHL
Procedure: as §1

[5] = molecular target: FGFR3 K650E (Homo sapiens, UniProt P22607, K650E); experiment: SelectScreen kinase assay; conditions: for Inhibition at 1 µM (%): FGFR3 K650E, ZLYTE, ATP Km app
Sequence of FGFR3 K650E (P22607 23-806 K650E): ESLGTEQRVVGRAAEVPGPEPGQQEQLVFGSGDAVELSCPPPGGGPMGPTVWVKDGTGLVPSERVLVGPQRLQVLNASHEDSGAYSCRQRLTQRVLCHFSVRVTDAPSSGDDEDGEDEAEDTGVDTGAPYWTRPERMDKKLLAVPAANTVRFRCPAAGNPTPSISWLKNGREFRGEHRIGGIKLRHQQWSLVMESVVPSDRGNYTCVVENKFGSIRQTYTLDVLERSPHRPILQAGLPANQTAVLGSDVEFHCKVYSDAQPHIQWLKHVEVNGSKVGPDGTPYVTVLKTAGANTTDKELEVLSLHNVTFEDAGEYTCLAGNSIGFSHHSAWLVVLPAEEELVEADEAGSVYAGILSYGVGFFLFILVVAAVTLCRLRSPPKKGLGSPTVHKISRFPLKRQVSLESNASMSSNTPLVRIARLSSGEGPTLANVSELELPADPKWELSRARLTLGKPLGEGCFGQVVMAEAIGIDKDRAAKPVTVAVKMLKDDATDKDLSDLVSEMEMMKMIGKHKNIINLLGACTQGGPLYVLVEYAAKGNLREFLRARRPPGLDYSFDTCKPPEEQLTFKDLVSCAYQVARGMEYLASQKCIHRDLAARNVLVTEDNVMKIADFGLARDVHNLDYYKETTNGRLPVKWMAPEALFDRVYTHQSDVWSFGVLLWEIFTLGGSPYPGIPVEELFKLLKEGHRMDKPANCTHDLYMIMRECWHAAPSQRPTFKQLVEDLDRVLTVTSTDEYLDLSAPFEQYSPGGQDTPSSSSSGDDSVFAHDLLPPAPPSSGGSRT
Procedure: as §1

[6] = molecular target: SGKL (SGK3) (Homo sapiens, UniProt Q96BR1); experiment: SelectScreen kinase assay
Sequence of SGKL (SGK3) (Q96BR1 whole entry): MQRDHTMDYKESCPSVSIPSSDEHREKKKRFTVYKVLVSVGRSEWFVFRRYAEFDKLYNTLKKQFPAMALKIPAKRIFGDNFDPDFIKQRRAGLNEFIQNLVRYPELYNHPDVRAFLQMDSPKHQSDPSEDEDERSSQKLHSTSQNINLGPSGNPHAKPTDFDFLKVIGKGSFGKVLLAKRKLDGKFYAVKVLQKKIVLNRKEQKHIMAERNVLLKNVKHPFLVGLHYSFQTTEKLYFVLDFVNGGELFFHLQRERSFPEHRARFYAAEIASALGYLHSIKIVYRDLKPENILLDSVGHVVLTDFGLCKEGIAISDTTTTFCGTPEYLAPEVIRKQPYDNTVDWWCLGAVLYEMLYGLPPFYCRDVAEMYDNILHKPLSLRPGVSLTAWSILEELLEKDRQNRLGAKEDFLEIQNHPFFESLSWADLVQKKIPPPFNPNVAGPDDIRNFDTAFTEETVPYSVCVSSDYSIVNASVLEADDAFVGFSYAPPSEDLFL
Procedure: as §1

[7] = molecular target: CSNK2A1 (CK2 alpha 1) (Homo sapiens, UniProt P68400); experiment: SelectScreen kinase assay
Sequence of CSNK2A1 (CK2 alpha 1) (P68400 whole entry): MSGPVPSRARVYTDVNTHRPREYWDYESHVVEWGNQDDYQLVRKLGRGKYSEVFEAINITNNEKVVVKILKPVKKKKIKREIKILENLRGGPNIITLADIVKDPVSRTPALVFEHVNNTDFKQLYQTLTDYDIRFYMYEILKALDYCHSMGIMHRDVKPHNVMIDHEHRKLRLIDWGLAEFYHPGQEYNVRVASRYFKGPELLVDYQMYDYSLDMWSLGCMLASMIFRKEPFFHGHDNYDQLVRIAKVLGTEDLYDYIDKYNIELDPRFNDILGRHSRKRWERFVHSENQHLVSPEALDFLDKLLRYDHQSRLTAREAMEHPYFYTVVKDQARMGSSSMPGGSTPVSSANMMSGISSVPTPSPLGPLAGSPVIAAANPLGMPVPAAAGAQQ
Procedure: as §1

[8] = molecular target: T2, FES^WT (Homo sapiens, UniProt P07332); experiment: PamChip microarray peptide phosphorylation; assay type: biochemical; conditions: Figure 7f, WT + WEL028, n 3
T2 construct: human FES cDNA encoding residues 448–822 or human FER cDNA encoding residues 448–820 was amplified by PCR; made in house; host or cells: E. coli BL21(DE3), co-expressing YopH phosphatase
T2 sequence (P07332 448-822): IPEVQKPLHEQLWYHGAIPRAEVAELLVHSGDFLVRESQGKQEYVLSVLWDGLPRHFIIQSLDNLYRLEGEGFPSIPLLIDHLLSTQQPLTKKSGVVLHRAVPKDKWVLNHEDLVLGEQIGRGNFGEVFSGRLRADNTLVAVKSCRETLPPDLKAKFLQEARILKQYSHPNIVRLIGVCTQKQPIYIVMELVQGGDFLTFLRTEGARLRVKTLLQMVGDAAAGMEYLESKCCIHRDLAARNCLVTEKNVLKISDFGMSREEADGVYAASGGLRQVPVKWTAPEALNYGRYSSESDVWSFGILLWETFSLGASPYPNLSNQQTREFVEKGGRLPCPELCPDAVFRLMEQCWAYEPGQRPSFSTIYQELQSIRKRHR

[9] = molecular target: T3, TBK1 (Homo sapiens, UniProt Q9UHD2); experiment: SelectScreen kinase assay
T3 sequence (Q9UHD2 1-729): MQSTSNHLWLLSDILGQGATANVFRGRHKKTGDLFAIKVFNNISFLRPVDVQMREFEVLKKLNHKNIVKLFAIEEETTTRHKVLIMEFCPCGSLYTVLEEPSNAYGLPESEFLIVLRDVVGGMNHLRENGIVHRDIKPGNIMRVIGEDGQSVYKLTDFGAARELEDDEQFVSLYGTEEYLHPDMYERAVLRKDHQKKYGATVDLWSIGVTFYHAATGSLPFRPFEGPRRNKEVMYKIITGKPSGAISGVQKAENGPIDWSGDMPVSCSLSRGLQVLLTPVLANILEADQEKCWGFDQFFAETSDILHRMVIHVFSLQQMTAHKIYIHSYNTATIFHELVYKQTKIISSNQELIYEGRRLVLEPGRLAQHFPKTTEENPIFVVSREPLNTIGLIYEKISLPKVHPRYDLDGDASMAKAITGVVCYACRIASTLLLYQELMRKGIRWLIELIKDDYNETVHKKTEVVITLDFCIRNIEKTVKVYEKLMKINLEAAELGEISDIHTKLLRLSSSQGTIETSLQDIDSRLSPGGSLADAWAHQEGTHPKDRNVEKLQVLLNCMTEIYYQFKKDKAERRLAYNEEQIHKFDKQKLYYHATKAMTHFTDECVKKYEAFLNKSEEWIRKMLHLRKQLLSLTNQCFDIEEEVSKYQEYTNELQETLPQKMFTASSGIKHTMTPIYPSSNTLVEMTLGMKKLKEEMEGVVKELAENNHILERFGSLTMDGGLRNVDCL
Procedure: as §1

[10] = molecular target: CDC42 BPB (MRCKB) (Homo sapiens, UniProt Q9Y5S2); experiment: SelectScreen kinase assay; conditions: 1 h, 1 μM WEL028, 1 h preincubation
Procedure: as §1

[11] = molecular target: NEK4 (Homo sapiens, UniProt P51957); experiment: SelectScreen kinase assay
Sequence of NEK4 (P51957 whole entry): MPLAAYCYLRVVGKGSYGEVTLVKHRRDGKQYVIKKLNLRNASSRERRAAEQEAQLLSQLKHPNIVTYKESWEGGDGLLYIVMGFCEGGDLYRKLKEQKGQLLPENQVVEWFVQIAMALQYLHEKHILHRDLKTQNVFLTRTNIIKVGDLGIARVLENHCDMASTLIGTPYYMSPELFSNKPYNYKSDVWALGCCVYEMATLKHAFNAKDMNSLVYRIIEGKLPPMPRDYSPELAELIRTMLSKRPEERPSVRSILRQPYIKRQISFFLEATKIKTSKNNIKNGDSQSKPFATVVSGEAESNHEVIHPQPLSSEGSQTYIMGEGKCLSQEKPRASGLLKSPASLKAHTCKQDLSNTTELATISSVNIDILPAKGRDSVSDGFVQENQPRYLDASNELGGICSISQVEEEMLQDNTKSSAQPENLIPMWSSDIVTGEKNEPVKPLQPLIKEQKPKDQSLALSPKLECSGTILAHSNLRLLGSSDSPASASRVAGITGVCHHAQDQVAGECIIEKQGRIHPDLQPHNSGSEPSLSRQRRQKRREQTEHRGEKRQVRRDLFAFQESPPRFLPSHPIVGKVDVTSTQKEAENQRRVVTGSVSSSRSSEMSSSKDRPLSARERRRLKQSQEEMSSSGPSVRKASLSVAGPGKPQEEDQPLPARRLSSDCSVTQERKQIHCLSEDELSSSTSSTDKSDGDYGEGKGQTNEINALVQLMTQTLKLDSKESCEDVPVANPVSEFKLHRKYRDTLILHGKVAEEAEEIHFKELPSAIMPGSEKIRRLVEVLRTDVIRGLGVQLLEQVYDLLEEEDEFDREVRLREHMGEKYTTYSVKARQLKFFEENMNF
Procedure: as §1

[12] = 1 h, 1 μM WEL028, 1 h preincubation
[13] = 1 µM, ZLYTE, ATP Km app, listed as WEL028, 1 µM

Q: For `C#CCOc1ccc(Nc2ncc(Cl)c(Nc3ccccc3NC(=O)C=C)n2)c(OC)c1` [Compound 6], which “CD11b-positive cells (%)” value [1] is on record?
A: Its value is 93.1005% and 92.0572% and 93.2155%.

Q: And the “Inhibition (%)” value ([2]; 1 μM WEL028, 1 h preincubation)?
A: Its value is 3%.

Q: What about the “Inhibition at 1 µM (%)” value ([2]; BMPR2, 1 µM, LanthaScreen Binding, listed as WEL028, 1 µM) of the same compound?
A: Its value is 2%.

Q: What about the inhibition at 1 µM ([2]; read-out: Inhibition at 1 µM (%), BMPR2, 1 µM, LanthaScreen Binding) of the same compound?
A: Its inhibition at 1 µM is 4%.

Q: What about the inhibition at 1 µM [3, 12] of the same compound?
A: The inhibition at 1 µM was -3%.

Q: And the “Inhibition at 1 µM (%)” value [3]?
A: Its value is -2%.

Q: What about the “Inhibition at 1 µM (%)” value ([3]; listed as WEL028, 1 µM) of the same compound?
A: Its value is -4%.

Q: And the “Inhibition (%)” value ([4]; 1 μM WEL028, 1 h preincubation)?
A: The value was 5%.

Q: And the “Inhibition at 1 µM (%)” value [4]?
A: Its value is 2%.

Q: What about the “Inhibition at 1 µM (%)” value ([4]; listed as WEL028, 1 µM) of the same compound?
A: Its value is 8%.

Q: And the inhibition at 1 µM [5, 12]?
A: The inhibition at 1 µM was 8%.

Q: And the “Inhibition at 1 µM (%)” value [5]?
A: The value was 12%.

Q: And the “Inhibition at 1 µM (%)” value ([5]; listed as WEL028, 1 µM)?
A: The value was 4%.

Q: And the “Inhibition at 1 µM (%)” value [6, 13]?
A: Its value is -12% and -2%.

Q: What about the inhibition at 1 µM [6, 12] of the same compound?
A: Its inhibition at 1 µM is -7%.

Q: And the inhibition at 1 µM [7, 12]?
A: The inhibition at 1 µM was 4%.

Q: And the “Inhibition at 1 µM (%)” value ([7]; CSNK2A1 (CK2 alpha 1), 1 µM, ZLYTE, ATP Km app, listed as WEL028, 1 µM)?
A: Its value is 9% and 0%.

Q: And the “Mean signal, time course” value ([8]; time 0 min)?
A: Its value is -37.0.

Q: What about the “Mean signal, time course” value ([8]; time 5 min) of the same compound?
A: Its value is 24.0.

Q: What about the “Mean signal, time course” value ([8]; time 10 min) of the same compound?
A: Its value is 80.0.

Q: And the “Mean signal, time course” value ([8]; time 15 min)?
A: Its value is 138.0.

Q: What about the “Mean signal, time course” value ([8]; time 20 min) of the same compound?
A: The value was 193.0.

Q: And the “Mean signal, time course” value ([8]; time 25 min)?
A: The value was 246.0.

Q: And the “Mean signal, time course” value ([8]; time 30 min)?
A: Its value is 301.0.

Q: And the “Mean signal, time course” value ([8]; time 35 min)?
A: The value was 361.0.

Q: And the “Mean signal, time course” value ([8]; time 40 min)?
A: Its value is 414.0.

Q: What about the “Mean signal, time course” value ([8]; time 45 min) of the same compound?
A: Its value is 472.0.

Q: And the “Mean signal, time course” value ([8]; time 50 min)?
A: Its value is 524.0.

Q: What about the “Mean signal, time course” value ([8]; time 55 min) of the same compound?
A: The value was 585.0.

Q: And the “Mean signal, time course” value ([8]; time 60 min)?
A: The value was 641.0.

Q: What about the “Inhibition at 1 µM (%)” value [9, 13] of the same compound?
A: Its value is 6%.

Q: And the inhibition at 1 µM [9, 12]?
A: Its inhibition at 1 µM is 7%.

Q: And the inhibition at 1 µM ([9]; read-out: Inhibition at 1 µM (%), 1 µM, ZLYTE, ATP Km app)?
A: Its inhibition at 1 µM is 8%.

Q: And the inhibition at 1 µM [10]?
A: The inhibition at 1 µM was 6%.

Q: What about the inhibition at 1 µM [11, 12] of the same compound?
A: Its inhibition at 1 µM is 4%.

Q: And the “Inhibition at 1 µM (%)” value ([11]; NEK4, 1 µM, ZLYTE, ATP Km app, listed as WEL028, 1 µM)?
A: The value was 5%.

Q: And the inhibition at 1 µM ([11]; read-out: Inhibition at 1 µM (%), NEK4, 1 µM, ZLYTE, ATP Km app)?
A: The inhibition at 1 µM was 4%.
